{"source": "patent US10406232B2", "about": "“Oral delivery compositions for treating dermatitis disorders in mammals” (Vets Plus, Inc., priority 2015, dated 2019)", "origin": "cited, not measured here", "system": "dendritic cells (DCs)", "details": "through sequential p38 MAP kinase phosphorylation and caspase 3-activation", "data": [{"smiles": "CC(C)[C@]12O[C@H]1[C@@H]1O[C@]13[C@]1(O[C@H]1C[C@H]1C4=C(CC[C@@]13C)C(=O)OC4)[C@@H]2O", "note": "[triptolide]", "values": [{"measurement": "concentration that induces apoptosis of DCs", "value": "≥ 20", "unit": "ng/mL"}]}]}
